# Assay results as given in patent US7019194B2, “SCCE modified transgenic mammals and their use as models of human disease” (priority 2001, dated 2006).
# Entries after “also recorded” stand apart in the source; their conditions may differ.
# System: scce-transgenic mice
# Assay: Scratching behaviour (itch) in scce-transgenic mice for testing of antipruritic agents
# Assay type: in vivo
# Conditions: scce-transgenic mice 20-21 weeks; tube feeding, 30 μl of 1 mg/ml mixture (FIG. 8A), 90 μl 7 days later (FIG. 8B); versus sucrose control solution
# Method: Scratching behavior of scce-transgenic (#1010) mice. Twenty one mice, (11 transgenes, 5 females; 10 wild type litter mates, 2 females) were observed every fifth day for 45 days, starting when the mice were 5-6 weeks of age. At each observation point mice were transferred to individual cages, and episodes of scratching with hind or front paws were counted during three 5-min periods with 2.5 min lapsing from the transfer to the cage to the first counting, and between counting periods. The results for the three observation periods were pooled and the number of episodes of scratching per min calculated. […]
# Transgenic mice, 18-22 weeks of age, mean weight 24.2 g, were given subcutaneous injections of either 250 μg of the glucocorticoid triamcinolone acetonide in a total volume of 100 μl on day 0, and 100 μg triamcinolone acetonide in a total volume of 100 μl on days 7, 14 and 21, or 100 μl of physiological saline at the same time points. Episodes of scratching were counted in the morning and injections were given in the afternoon. […]
# Transgenic mice 20-21 weeks of age, mean weight […], were given either loratidine in a total volume of 100 μl, or 100 μl of a control solution by means of tube feeding. Episodes of scratching were counted immediately before feeding (0 hours), and then at time points as indicated. […]
smiles,measurement,value
CCOC(=O)N1CCC(=C2c3ccc(Cl)cc3CCc3cccnc32)CC1 [loratidine],effect on itch (frequency of scratching),no significant difference in frequency of scratching; also recorded: no statistically significant antipruritic effect; also recorded: no statistically significant differences in frequency of scratching
